Assay results published in patent US20230085307A1, “PYRIDAZINONE COMPOUND AND HERBICIDE” (NISSAN CHEMICAL CORPORATION, priority 2019, published 2023).

Tests used:
[1] = system: oval-leafed pondweed; assay: Test Example 2: herbicidal activity, application during weed generation under submerged conditions (Table 17, symbol C); type: in vivo, oval-leafed pondweed (Monochoria vaginalis); details: application during weed generation, submerged conditions
In short: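 Alluvial soil in Wagner pots was flooded to 4 cm depth and sown with the three weeds together; pots were kept in a greenhouse at 25° C. to 30° C. At the one to two leaf stage, an emulsion formulation diluted in water to a set rate went onto the water surface; scored three weeks later.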

[2] = system: green foxtail; assay: Test Example 5: herbicidal effect by foliage application, plastic box (Table 20, symbol G); type: in vivo, green foxtail (Setaria viridis); details: foliage application; for herbicidal effect on G: green foxtail: 320 g/ha, evaluated three weeks after application
In short: (§1)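 Foliar spray test: emulsion formulation diluted in water to a set application rate, sprayed onto 14-day-old plants raised in diluvial soil at 25° C to 30° C under glass. Both herbicidal effect and crop effect rated visually three weeks later.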

[3] = system: oval-leafed pondweed; assay: Test Example 1: herbicidal activity, application before weed generation under submerged conditions (Table 16, symbol C); type: in vivo, oval-leafed pondweed (Monochoria vaginalis)
In short: (§2)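 Alluvial soil was flooded to 4 cm depth, weed seeds were sown mixed and 2.5-leaf rice seedlings were transplanted. On sowing day, the compound's emulsion, diluted in water to a set dose, was applied to the water surface. Plants grew at 25–30 °C and were scored 0–5 after three weeks.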

[4] = system: velvetleaf; assay: Test Example 5: herbicidal effect by foliage application, plastic box (Table 20, symbol M); type: in vivo, velvetleaf (Abutilon theophrasti); details: foliage application; for herbicidal effect on M: velvetleaf: 320 g/ha, evaluated three weeks after application
In short: as §1

[5] = system: chickweed; assay: Test Example 5: herbicidal effect by foliage application, plastic box (Table 20, symbol P); type: in vivo, common chickweed (Stellaria media); details: foliage application; for herbicidal effect on P: chickweed: 320 g/ha, evaluated three weeks after application
In short: as §1

[6] = system: windgrass; assay: Test Example 4: herbicidal effect by soil treatment (Table 19, symbol L); type: in vivo, windgrass (Apera spica-venti); details: for herbicidal effect rating, L: windgrass: 320 g/ha
In short: (§3)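 Step 1: sow seeds in sterilized diluvial soil, cover ~1.5 cm. Step 2: spray diluted emulsion onto soil surface at predetermined rate. Step 3: greenhouse, 25–30° C, three weeks. Step 4: grade effect on each plant by earlier criteria.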

[7] = system: blackgrass; assay: Test Example 4: herbicidal effect by soil treatment (Table 19, symbol J); type: in vivo, blackgrass (Alopecurus myosuroides); details: for herbicidal effect rating, J: blackgrass: 320 g/ha
In short: as §3

[8] = system: Japanese bulrush; assay: Test Example 1: herbicidal activity, application before weed generation under submerged conditions (Table 16, symbol B); type: in vivo, Japanese bulrush (Schoenoplectus juncoides)
In short: as §2

[9] = system: persian speedwell; assay: Test Example 4: herbicidal effect by soil treatment (Table 19, symbol R); type: in vivo, Persian speedwell (Veronica persica); details: for herbicidal effect rating, R: persian speedwell: 320 g/ha
In short: as §3

[10] = system: late watergrass; assay: Test Example 1: herbicidal activity, application before weed generation under submerged conditions (Table 16, symbol A); type: in vivo, late watergrass (Echinochloa oryzicola)
In short: as §2

[11] = system: Chinese sprangletop; assay: Test Example 3: herbicidal effect by foliage application, Wagner pot (Table 18, symbol D); type: in vivo, chinese sprangletop (Leptochloa chinensis)
In short: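 Plants were sown in alluvial soil held under 0.1–0.5 cm standing water and grown 14 days in a greenhouse at 25–30 °C. An emulsifiable formulation, water-diluted to the set dose, was then sprayed onto the foliage, and effects were scored three weeks later using previously defined criteria.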

[12] = AAH 368 g/ha, three weeks after application

Row | Compound | herbicidal effect rating, C: oval-leafed pondweed ([1]; AAH 320 g/ha) | herbicidal effect on G: green foxtail [2] | Herbicidal effect on C: oval-leafed pondweed (grade 0-5) ([3]; 320 g/ha applied herbicide) | herbicidal effect on M: velvetleaf [4] | herbicidal effect on P: chickweed [5] | herbicidal effect rating, L: windgrass [6] | herbicidal effect rating, J: blackgrass [7] | Herbicidal effect on B: Japanese bulrush (grade 0-5) ([8]; 320 g/ha applied herbicide) | herbicidal effect rating, R: persian speedwell [9] | Herbicidal effect on A: late watergrass (grade 0-5) ([10]; 320 g/ha applied herbicide) | herbicidal effect on D (Chinese sprangletop), rating 0-5 ([11]; 320 g/ha) | also measured
1 | COCCOc1ccc(-c2sc3ccccc3c2-c2c(O)c(C)nn(C)c2=O)cc1 [1-148] | – | – | – | – | – | – | – | – | – | – | – | herbicidal effect rating, C: oval-leafed pondweed ([1]; AAH 368 g/ha): 1 (Herbicidal rate of 5% or more and less than 20%); G: green foxtail, herbicidal effect [2, 12]: 5 (Herbicidal rate of 90% or more (almost completely withered)); Herbicidal effect on C: oval-leafed pondweed (grade 0-5) ([3]; 368 g/ha applied herbicide): 3 (Herbicidal rate of 40% or more and less than 70%); M: velvetleaf, herbicidal effect [4, 12]: 5 (Herbicidal rate of 90% or more (almost completely withered)); P: chickweed, herbicidal effect [5, 12]: 5 (Herbicidal rate of 90% or more (almost completely withered)); L: windgrass, herbicidal effect rating ([6]; AAH 368 g/ha): 0 (Herbicidal rate of 5% or less (almost no effect)); J: blackgrass, herbicidal effect rating ([7]; AAH 368 g/ha): 1 (Herbicidal rate of 5% or more and less than 20%); Herbicidal effect on B: Japanese bulrush (grade 0-5) ([8]; 368 g/ha applied herbicide): 3 (Herbicidal rate of 40% or more and less than 70%); R: persian speedwell, herbicidal effect rating ([9]; AAH 368 g/ha): 5 (Herbicidal rate of 90% or more (almost completely withered)); Herbicidal effect on A: late watergrass (grade 0-5) ([10]; 368 g/ha applied herbicide): 3 (Herbicidal rate of 40% or more and less than 70%); herbicidal effect on D (Chinese sprangletop), rating 0-5 ([11]; 368 g/ha): 4 (Herbicidal rate of 70% or more and less than 90%)
2 | Cc1nn(C)c(=O)c(-c2c(-c3ccc(OCC(F)(F)F)cc3)sc3ccc(F)cc23)c1O [2-049] | 2 (Herbicidal rate of 20% or more and less than 40%) | 5 (Herbicidal rate of 90% or more (almost completely withered)) | 3 (Herbicidal rate of 40% or more and less than 70%) | 5 (Herbicidal rate of 90% or more (almost completely withered)) | 5 (Herbicidal rate of 90% or more (almost completely withered)) | 5 (Herbicidal rate of 90% or more (almost completely withered)) | 4 (Herbicidal rate of 70% or more and less than 90%) | 3 (Herbicidal rate of 40% or more and less than 70%) | 4 (Herbicidal rate of 70% or more and less than 90%) | 2 (Herbicidal rate of 20% or more and less than 40%) | 5 (Herbicidal rate of 90% or more (almost completely withered)) | –
3 | C=CCOc1ccc(-c2sc3ccc(F)cc3c2-c2c(O)c(C)nn(C)c2=O)cc1 [2-051] | 1 (Herbicidal rate of 5% or more and less than 20%) | 5 (Herbicidal rate of 90% or more (almost completely withered)) | 4 (Herbicidal rate of 70% or more and less than 90%) | 4 (Herbicidal rate of 70% or more and less than 90%) | 5 (Herbicidal rate of 90% or more (almost completely withered)) | 3 (Herbicidal rate of 40% or more and less than 70%) | 0 (Herbicidal rate of 5% or less (almost no effect)) | 4 (Herbicidal rate of 70% or more and less than 90%) | 4 (Herbicidal rate of 70% or more and less than 90%) | 3 (Herbicidal rate of 40% or more and less than 70%) | 5 (Herbicidal rate of 90% or more (almost completely withered)) | –
4 | C#CCOc1ccc(-c2sc3ccc(F)cc3c2-c2c(O)c(C)nn(C)c2=O)cc1 [2-053] | 3 (Herbicidal rate of 40% or more and less than 70%) | 5 (Herbicidal rate of 90% or more (almost completely withered)) | 4 (Herbicidal rate of 70% or more and less than 90%) | 5 (Herbicidal rate of 90% or more (almost completely withered)) | 5 (Herbicidal rate of 90% or more (almost completely withered)) | 0 (Herbicidal rate of 5% or less (almost no effect)) | 0 (Herbicidal rate of 5% or less (almost no effect)) | 3 (Herbicidal rate of 40% or more and less than 70%) | 5 (Herbicidal rate of 90% or more (almost completely withered)) | 2 (Herbicidal rate of 20% or more and less than 40%) | 5 (Herbicidal rate of 90% or more (almost completely withered)) | –
5 | CSc1ccc(-c2sc3ccc(F)cc3c2-c2c(O)c(C)nn(C)c2=O)cc1 [2-076] | 0 (Herbicidal rate of 5% or less (almost no effect)) | 5 (Herbicidal rate of 90% or more (almost completely withered)) | 0 (Herbicidal rate of 5% or less (almost no effect)) | 5 (Herbicidal rate of 90% or more (almost completely withered)) | 5 (Herbicidal rate of 90% or more (almost completely withered)) | 4 (Herbicidal rate of 70% or more and less than 90%) | 0 (Herbicidal rate of 5% or less (almost no effect)) | 0 (Herbicidal rate of 5% or less (almost no effect)) | 5 (Herbicidal rate of 90% or more (almost completely withered)) | 3 (Herbicidal rate of 40% or more and less than 70%) | 5 (Herbicidal rate of 90% or more (almost completely withered)) | –
6 | CCCC(=O)Oc1c(C)nn(C)c(=O)c1-c1c(-c2ccc(SC)cc2)sc2ccc(F)cc12 [2-077] | 3 (Herbicidal rate of 40% or more and less than 70%) | 5 (Herbicidal rate of 90% or more (almost completely withered)) | 5 (Herbicidal rate of 90% or more (almost completely withered)) | 5 (Herbicidal rate of 90% or more (almost completely withered)) | 5 (Herbicidal rate of 90% or more (almost completely withered)) | 3 (Herbicidal rate of 40% or more and less than 70%) | 2 (Herbicidal rate of 20% or more and less than 40%) | 4 (Herbicidal rate of 70% or more and less than 90%) | 5 (Herbicidal rate of 90% or more (almost completely withered)) | 3 (Herbicidal rate of 40% or more and less than 70%) | 5 (Herbicidal rate of 90% or more (almost completely withered)) | –
